Measurements: BigSolDB 2.1

Cc1ccccc1S(N)(=O)=O
Conditions	solubility (mole fraction)
in acetone, 273.15 K	0.0728
in acetone, 279.15 K	0.0787
in acetone, 283.75 K	0.0844
in acetone, 289.15 K	0.091
in acetone, 298.95 K	0.105
in acetone, 303.25 K	0.113
in acetone, 308.65 K	0.124
in acetone, 313.15 K	0.134
in acetone, 318.15 K	0.146
in acetone, 323.15 K	0.158
in acetonitrile, 273.15 K	0.0167
in acetonitrile, 279.15 K	0.0196
in acetonitrile, 283.95 K	0.022
in acetonitrile, 293.35 K	0.0297
in acetonitrile, 298.95 K	0.0347
in acetonitrile, 303.25 K	0.0401
in acetonitrile, 308.95 K	0.0476
in acetonitrile, 313.15 K	0.0533
in acetonitrile, 319.15 K	0.0634
in acetonitrile, 323.85 K	0.0723
in cyclohexanone, 273.15 K	0.0803
in cyclohexanone, 279.15 K	0.0861
in cyclohexanone, 283.95 K	0.0927
in cyclohexanone, 289.15 K	0.0992
in cyclohexanone, 293.35 K	0.105
in cyclohexanone, 298.95 K	0.114
in cyclohexanone, 303.25 K	0.122
in cyclohexanone, 308.95 K	0.133
in cyclohexanone, 313.15 K	0.143
in cyclohexanone, 319.15 K	0.156
in cyclohexanone, 323.85 K	0.168
in cyclopentanone, 273.15 K	0.098
in cyclopentanone, 279.15 K	0.104
in cyclopentanone, 283.95 K	0.111
in cyclopentanone, 289.15 K	0.118
in cyclopentanone, 293.35 K	0.124
in cyclopentanone, 298.95 K	0.133
in cyclopentanone, 303.25 K	0.142
in cyclopentanone, 308.95 K	0.152
in cyclopentanone, 313.15 K	0.16
in cyclopentanone, 319.15 K	0.175
in cyclopentanone, 323.85 K	0.187
in dichloromethane, 273.15 K	0.00161
in dichloromethane, 279.15 K	0.00199
in dichloromethane, 283.95 K	0.00233
in dichloromethane, 289.15 K	0.00304
in dichloromethane, 293.35 K	0.00365
in dichloromethane, 298.95 K	0.00463
in dichloromethane, 303.25 K	0.00547
in dichloromethane, 308.95 K	0.00697
in dichloromethane, 312.15 K	0.00785
in ethanol, 273.15 K	0.00764
in ethanol, 279.15 K	0.00971
in ethanol, 283.75 K	0.0116
in ethanol, 289.15 K	0.0147
in ethanol, 298.95 K	0.0196
in ethanol, 303.25 K	0.0226
in ethanol, 308.65 K	0.0275
in ethanol, 313.15 K	0.0315
in ethanol, 318.15 K	0.0374
in ethanol, 323.15 K	0.0439
in ethyl acetate, 273.15 K	0.0221
in ethyl acetate, 279.15 K	0.0248
in ethyl acetate, 283.75 K	0.0278
in ethyl acetate, 289.15 K	0.0307
in ethyl acetate, 298.95 K	0.0377
in ethyl acetate, 303.25 K	0.0416
in ethyl acetate, 308.65 K	0.0471
in ethyl acetate, 313.15 K	0.0518
in ethyl acetate, 318.15 K	0.0578
in ethyl acetate, 323.15 K	0.0643
in ethyl formate, 273.15 K	0.013
in ethyl formate, 279.15 K	0.0146
in ethyl formate, 283.95 K	0.0165
in ethyl formate, 289.15 K	0.0185
in ethyl formate, 293.35 K	0.0207
in ethyl formate, 298.95 K	0.0239
in ethyl formate, 303.25 K	0.0273
in ethyl formate, 308.95 K	0.0316
in ethyl formate, 313.15 K	0.0354
in ethyl formate, 319.15 K	0.0408
in ethyl formate, 323.85 K	0.0461
in isobutanol, 273.15 K	0.00205
in isobutanol, 279.15 K	0.00284
in isobutanol, 283.75 K	0.00363
in isobutanol, 289.15 K	0.00476
in isobutanol, 298.95 K	0.00768
in isobutanol, 303.25 K	0.00934
in isobutanol, 308.65 K	0.012
in isobutanol, 313.15 K	0.0144
in isobutanol, 318.15 K	0.0178
in isobutanol, 323.15 K	0.0215
in isopentanol, 273.15 K	0.00248
in isopentanol, 279.15 K	0.00333
in isopentanol, 283.95 K	0.00419
in isopentanol, 289.15 K	0.00534
in isopentanol, 293.35 K	0.00642
in isopentanol, 298.95 K	0.00805
in isopentanol, 303.25 K	0.00978
in isopentanol, 308.95 K	0.0125
in isopentanol, 313.15 K	0.0144
in isopentanol, 319.15 K	0.0183
in isopentanol, 323.85 K	0.0214
in isopropanol, 273.15 K	0.00343
in isopropanol, 279.15 K	0.00464
in isopropanol, 283.75 K	0.00581
in isopropanol, 289.15 K	0.00756
in isopropanol, 298.95 K	0.0115
in isopropanol, 303.25 K	0.0137
in isopropanol, 308.65 K	0.0175
in isopropanol, 313.15 K	0.0208
in isopropanol, 318.15 K	0.0252
in isopropanol, 323.15 K	0.0304
in methanol, 273.15 K	0.0128
in methanol, 279.15 K	0.016
in methanol, 283.75 K	0.0189
in methanol, 289.15 K	0.0233
in methanol, 298.95 K	0.0311
in methanol, 303.25 K	0.0355
in methanol, 308.65 K	0.0422
in methanol, 313.15 K	0.0489
in methanol, 318.15 K	0.0567
in methanol, 323.15 K	0.0658
in methyl acetate, 273.15 K	0.027
in methyl acetate, 279.15 K	0.0303
in methyl acetate, 283.95 K	0.0337
in methyl acetate, 289.15 K	0.0374
in methyl acetate, 293.35 K	0.0405
in methyl acetate, 298.95 K	0.046
in methyl acetate, 303.25 K	0.0513
in methyl acetate, 308.95 K	0.058
in methyl acetate, 313.15 K	0.0637
in methyl acetate, 319.15 K	0.0731
in methyl acetate, 323.85 K	0.0809
in n-butanol, 273.15 K	0.00341
in n-butanol, 279.15 K	0.00451
in n-butanol, 283.75 K	0.00556
in n-butanol, 289.15 K	0.00731
in n-butanol, 298.95 K	0.0104
in n-butanol, 303.25 K	0.0123
in n-butanol, 308.65 K	0.0154
in n-butanol, 313.15 K	0.0181
in n-butanol, 318.15 K	0.0218
in n-butanol, 323.15 K	0.0262
in n-pentanol, 273.15 K	0.0027
in n-pentanol, 279.15 K	0.00363
in n-pentanol, 283.95 K	0.00456
in n-pentanol, 289.15 K	0.00568
in n-pentanol, 293.35 K	0.00705
in n-pentanol, 298.95 K	0.00875
in n-pentanol, 303.25 K	0.0108
in n-pentanol, 308.95 K	0.0134
in n-pentanol, 313.15 K	0.0158
in n-pentanol, 319.15 K	0.0195
in n-pentanol, 323.85 K	0.023
in n-propanol, 273.15 K	0.00418
in n-propanol, 279.15 K	0.0055
in n-propanol, 283.75 K	0.00674
in n-propanol, 289.15 K	0.00847
in n-propanol, 298.95 K	0.0126
in n-propanol, 303.25 K	0.0148
in n-propanol, 308.65 K	0.0182
in n-propanol, 313.15 K	0.0215
in n-propanol, 318.15 K	0.0257
in n-propanol, 323.15 K	0.03
